Source: patent publication US20040072770A1, “Methods for specifically inhibiting histone deacetylase-7 and 8” (priority 2002, published 2004)
d = 2'-deoxy (DNA); m = 2'-O-methyl

Columns and labels:
A549 cells [1] = assay: Apoptosis (Cell Death Detection ELISA), A549; type: cell-based, human; settings: 50 nM, 48 hours, over mismatch control
Protocol: (§1) For all ex vivo oligo treatment, human A549 human […] carcinoma cells were seeded in 10 cm tissue culture dishes one day prior to oligonucleotide treatment. The cell lines were obtained from the American Type Culture Collection (ATCC) (Manassas, Va.) and were grown under the recommended culture conditions. Before the addition of the oligonucleotides, cells were washed with PBS (phosphate buffered saline). Next, lipofectin transfection reagent (GIBCO BRL Mississauga, Ontario, Calif.), at a concentration of 6.25 μg/ ml, was added to serum free OPTIMEM medium (GIBCO BRL, Rockville, Md.), which was then added to the cells. The oligonucleotides were added directly to the cells (i.e., one oligonucleotide per plate of cells). Mismatched oligonucleotides were used as controls. The same concentration of oligonucleotide (e.g., 50 nM) was used per plate of cells for each oligonucleotide tested.
(§2) In order to determine the effect of HDAC ODNs on cell growth inhibition and cell death through apoptosis, A549, T24, DuI45, HCT116 cells (ATCC, Manassas, Va.), or HMEC cells (BioWhittaker, Walkersville, Md.) were treated with HDAC ODNs as previously described.
(§3) For the apoptosis study, cells were analyzed using the Cell Death Detection ELISA^Plus kit (Roche Diagnostic GmBH, Mannheim, Germany) according to the manufacturer's directions. Typically, 10,000 cells were plated in 96-well tissue culture dishes for 2 hours before harvest and lysis. Each sample was analyzed in duplicate. ELISA reading was done using a MR700 plate reader (DYNEX Technology, Ashford, Middlesex, England) at 410 nm. The reference was set at 490 nm.
[…] Similarly, A549 cells were treated with 20 nM of HDAC1 AS in combination with 20 nM of each of AS inhibitors against human HDAC2 to HDAC8. After 48 hour treatment, A549 cells were harvested and analyzed for apoptosis by ELISA as described previously. Apoptosis of A549 cells by AS inhibition was compared to that of cells treated with 1 uM TSA for 16 hours. […] The control oligo UMM had no effect on induction of apoptosis.

MDAmb231 cells [2] = assay: Apoptosis (Cell Death Detection ELISA), MDAmb231; type: cell-based, human; settings: 50 nM, 48 hours, over mismatch control
HCT116 cells [3] = assay: Growth inhibition by antisense oligos, HCT116; type: cell-based, human; settings: 50 nM, 48 hour, vs cells treated with lipofectin
Protocol: as §1, with “tested. […]” for “tested.”
(§4) For the cell growth inhibition analysis, human cancer or normal cells were treated with 50 nM of paired AS or MM oligos directed against human HDAC-1, HDAC-7 or HDAC-8for up to 96 hours. Cell numbers were counted every day by trypan blue exclusion. Percentage of inhibition was calculated as (100 - AS cell numbers/control cell numbers)%.

HCT116 cells [4] = assay: Inhibition of agar colony formation, HCT116; type: cell-based, human; settings: 50 nM oligos for 48 hours, vs cells treated with lipofectin
Du145 cells = assay: Growth inhibition by antisense oligos, Du145; type: cell-based, human; settings: 50 nM, 48 hour, vs cells treated with lipofectin
Protocol: as §1, §2, §4

T24 cells = assay: Apoptosis (Cell Death Detection ELISA), T24; type: cell-based, human; settings: 50 nM, 48 hours, over mismatch control
Protocol: as §1, §2, §3

A549 cells [5] = assay: Growth inhibition by antisense oligos, A549; type: cell-based, human; settings: 50 nM, 48 hour, vs cells treated with lipofectin
Protocol: as §1, §2, §4

MDAmb231 cells [6] = assay: Inhibition of agar colony formation, MDAmb231; type: cell-based, human; settings: 50 nM oligos for 48 hours, vs cells treated with lipofectin
MDAmb231 cells [7] = assay: Growth inhibition by antisense oligos, MDAmb231; type: cell-based, human; settings: 50 nM, 48 hour, vs cells treated with lipofectin
Protocol: [The procedure below names another cell line; the source lists this cell line under the same test.] as §1, with “tested. […]” for “tested.”
as §4

[8] = test system: murine erythroleukemia cells; settings: Yoshida et al, Cancer Res. 47:3688-3691 (1987); cited from earlier work
mammalian HDAC = settings: Yoshida et al., J. Biol. Chem. 265:17174-17179 (1990); cited from earlier work
human HDAC-8 mRNA = assay: HDAC-8 mRNA expression in A549 cells, Northern blot; type: cell-based
Protocol: To identify antisense oligodeoxynucleotides (ODN) capable of inhibiting HDAC-8 expression in human cancer cells, fourteen phosphorothioate ODNs containing sequences complementary to the 5′ or 3′ UTR of the human […] (GenBank Accession No. AF230097) were initially screened in A549 cells at 100 nM. Cells were harvested after 24 hours of treatment, and HDAC-8 RNA expression was analyzed by Northern blot analysis. […] Total RNAs were harvested and were analyzed by Northern Blot. GAPDH expression was analyzed to indicate total RNA loading in each lane.
In order to determine the dose response of HDAC7 antisense inhibitors to reduce HDAC7 message at the mRNA level, Human A549 cells were treated with 25 or 50 nM of antisense (AS1 and AS2) oligos directed against human HDAC-7 or the corresponding mismatch of AS1 (MM1) oligo or an universal mismatch (UMM) for 24 hours. […] The time dependence of HDAC7 antisense inhibitors on blocking HDAC7 gene expression at the mRNA level was analyzed by treating A549 cells with 50 nM AS1 or MM1 oligos. […] Similarly, A549 cells were treated with 25 nM or 50 nM of AS1 or AS2 oligos directed against human HDAC-8 or its MM oligo for AS2 (MM2) for 24 hours. AS-2 oligo against human HDAC8 at 50 nM was also used to treat A549 cells for 24 or 48 hours.
as §1
Cells were harvested, and total RNAs were analyzed by Northern blot analysis. Briefly, total RNA was extracted using RNeasy miniprep columns (QIAGEN Canada, Mississauga, Ontario). Ten to twenty […] of total RNA was run on a formaldehyde-containing 1% agarose gel with 0.5 M sodium phosphate (pH 7.0) as the buffer system. RNAs were then transferred to nitrocellulose membranes and hybridized with the indicated radiolabeled DNA probes. Autoradiography was performed using conventional procedures.

human HDAC-6 RNA = assay: HDAC-6 RNA expression screen, Northern blot; type: cell-based; settings: screened as above (T24 cells, 100 nM, 24 hours)
Protocol: (§5) To identify antisense oligodeoxynucleotide (ODN) capable of inhibiting HDAC-1 expression in human cancer cells, eleven phosphorothioate ODNs containing sequences complementary to the 5′ or 3′ UTR of the human HDAC-1 gene (GenBank Accession No. U50079) were initially screened in T24 cells at 100 nM. Cells were harvested after 24 hours of treatment, and HDAC-1 RNA expression was analyzed by Northern blot analysis. […] HDAC-1 MM oligo was created as a control; compared to the antisense oligo, it has a 6-base mismatch.
Thirteen phosphorothloate ODNs containing sequences complementary to the 5′ or 3′ untranslated regions of the human HDAC-6 gene (GenBank Accession No. AJ011972) were screened as above. […] HDAC-6 MM oligo was created as a control; compared to the antisense oligo, it contains a 7-base mismatch.

human HDAC-2 RNA = assay: HDAC-2 RNA expression screen, Northern blot; type: cell-based; settings: screened as above (T24 cells, 100 nM, 24 hours)
Protocol: as §5
Twenty-four phosphorothioate ODNs containing sequences complementary to the 5′ or 3′ UTR of the human HDAC-2 gene (GenBank Accession No. U31814) were screened as above. […] HDAC-2 MM was created as a control; compared to the antisense oligo, it contains a 7-base mismatch.

Molecule	Apoptosis A549 (A549 cells [1])	inhibition of agar colony formation HCT 116 (HCT116 cells [4])	Growth Inhibition Du145 (Du145 cells)	Apoptosis T24 (T24 cells)	Growth Inhibition A549 (A549 cells [5])	also measured
5′-GCUGCCTGCCGTGCCCACCC-3′ (sugars from the 5' end m4 d12 m4, all phosphorothioate, methylation of C not given here) [HD4 AS1, antisense oligo, Human HDAC4 5′-UTR]	+ (“+” means the induction of apoptosis at least 2 fold over mismatch control (50 nM, 48 hours))	+ (“+” means >35% inhibition of agar colony formation of cells treated with 50 nM oligos for 48 hours compared to that of cells treated with lipofectin)	+ (“+” means >35% inhibition of cell growth by antisense oligos (50 nM, 48 hour) compared to that of cells treated with lipofectin)	+ (“+” means the induction of apoptosis at least 2 fold over mismatch control (50 nM, 48 hours))	+ (“+” means >35% inhibition of cell growth by antisense oligos (50 nM, 48 hour) compared to that of cells treated with lipofectin)	Apoptosis MDAmb 231 (MDAmb231 cells [2]): + (“+” means the induction of apoptosis at least 2 fold over mismatch control (50 nM, 48 hours)); Growth Inhibition HCT 116 (HCT116 cells [3]): + (“+” means >35% inhibition of cell growth by antisense oligos (50 nM, 48 hour) compared to that of cells treated with lipofectin); inhibition of agar colony formation MDAmb 231 (MDAmb231 cells [6]): + (“+” means >35% inhibition of agar colony formation of cells treated with 50 nM oligos for 48 hours compared to that of cells treated with lipofectin); Growth Inhibition MDAmb 231 (MDAmb231 cells [7]): + (“+” means >35% inhibition of cell growth by antisense oligos (50 nM, 48 hour) compared to that of cells treated with lipofectin)
CC(/C=C/C(=O)NO)=C\[C@@H](C)C(=O)c1ccc(N(C)C)cc1 [TSA, (R)-Trichostatin A]						induction of differentiation [8]: potent inducer of differentiation; inhibition of mammalian HDAC (mammalian HDAC): potent inhibitor
5′-AGCCAGCTGCCACTTGAUGC-3′ (sugars from the 5' end m4 d12 m4, all phosphorothioate, methylation of C not given here) [HD8 AS2, antisense oligo, Human HDAC8 3′-UTR]	+ (“+” means the induction of apoptosis at least 2 fold over mismatch control (50 nM, 48 hours))	+ (“+” means >35% inhibition of agar colony formation of cells treated with 50 nM oligos for 48 hours compared to that of cells treated with lipofectin)	+ (“+” means >35% inhibition of cell growth by antisense oligos (50 nM, 48 hour) compared to that of cells treated with lipofectin)	+ (“+” means the induction of apoptosis at least 2 fold over mismatch control (50 nM, 48 hours))	+ (“+” means >35% inhibition of cell growth by antisense oligos (50 nM, 48 hour) compared to that of cells treated with lipofectin)	HDAC-8 mRNA expression, dose response (FIG. 5) (human HDAC-8 mRNA; 25 nM or 50 nM, 24 hours): inhibited in a dose-dependent manner; HDAC-8 mRNA expression, time course (FIG. 6) (human HDAC-8 mRNA; 50 nM, 24 or 48 hours): significantly block HDAC8 expression at the mRNA level by 24 hours; HDAC-8 RNA expression, initial screen (human HDAC-8 mRNA; 100 nM, 24 hours): good antisense activities
5′-CAGGCTGGAATGAGCTACAG-3′ (sugars from the 5' end m4 d12 m4, all phosphorothioate, methylation of C not given here) [HD6 AS, antisense oligo, Human HDAC6 3′-UTR]						HDAC-6 RNA expression, screen (human HDAC-6 RNA): antisense activity to human HDAC-6
5′-GCUGAGCTGTTCTGATUUGG-3′ (sugars from the 5' end m4 d12 m4, all phosphorothioate, methylation of C not given here) [HD2 AS, antisense oligo, Human HDAC2 3′-UTR]			+ (“+” means >35% inhibition of cell growth by antisense oligos (50 nM, 48 hour) compared to that of cells treated with lipofectin)			HDAC-2 RNA expression, screen (human HDAC-2 RNA): antisense activity to human HDAC-2
